Assay results taken from patent publication US20260055103A1, “2,3,4,9-TETRAHYDRO-1H-PYRIDO[3,4-B]INDOLE DERIVATIVES AS ESTROGEN RECEPTOR MODULATORS FOR THE TREATMENT OF CANCER” (Olema Pharmaceuticals, Inc., priority 2022, published 2026).

Molecular target: T1, estrogen receptor (Homo sapiens, UniProt P03372)
T1 construct: endogenous in cells; host or cells: ECC-1 cells
T1 sequence (P03372 1-595): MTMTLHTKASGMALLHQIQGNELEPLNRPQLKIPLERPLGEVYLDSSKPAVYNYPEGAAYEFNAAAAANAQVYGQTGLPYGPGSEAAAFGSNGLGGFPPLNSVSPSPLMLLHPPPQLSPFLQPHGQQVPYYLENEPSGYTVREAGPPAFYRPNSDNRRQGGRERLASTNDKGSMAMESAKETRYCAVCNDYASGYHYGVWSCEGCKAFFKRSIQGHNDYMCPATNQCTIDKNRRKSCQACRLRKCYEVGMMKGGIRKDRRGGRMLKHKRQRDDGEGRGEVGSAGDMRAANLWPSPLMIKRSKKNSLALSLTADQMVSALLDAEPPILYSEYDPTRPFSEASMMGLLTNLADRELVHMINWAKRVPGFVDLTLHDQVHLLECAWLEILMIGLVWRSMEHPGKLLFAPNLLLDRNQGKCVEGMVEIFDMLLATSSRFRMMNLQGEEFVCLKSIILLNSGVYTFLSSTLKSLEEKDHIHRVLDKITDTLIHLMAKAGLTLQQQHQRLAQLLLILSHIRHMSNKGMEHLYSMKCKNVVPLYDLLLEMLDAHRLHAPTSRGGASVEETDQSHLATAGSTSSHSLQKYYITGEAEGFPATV
Test: Alkaline phosphatase (AP) assay in ECC-1 cells, agonist mode (no E2) and antagonist mode (500 pM E2)
Assay type: cell-based
Conditions: 3 days, AP activity normalized to 500 pM E2 alone, agonist mode without E2, antagonist mode with 500 pM E2
Description: ECC-1 cells were trypsinized and resuspended in hormone-depleted media and plated at a density of 15 k cells per well into a 96-well plate for at least 4 hours. Cells were treated with test compounds in the absence of E2 (for agonist mode) or in the presence of 500 pM E2 (for antagonist mode) for 3 days and plates were subsequently frozen at −80° C. Thawed plates were incubated with a chromogenic substrate of AP, p-nitrophenyl phosphate (Thermo Fisher Scientific), for 40 minutes at 42° C., and absorbances were read at 405 nm. AP activity was normalized to the activity of 500 pM E2 alone.
The compound numbers correspond to the compound numbers of Table 1 and 2. Compounds having an activity designated as “+” provided estrogen receptor agonism having (i) at least 80% increase in the E2-normalized signal in the AP assay (agonist mode) and (ii) no more than 80% reduction in the E2-normalized signal in the AP assay (antagonist mode). Compounds having an activity designated as “++” provided estrogen receptor antagonism having (i) between 10% and 80% increase in the E2-normalized signal in the AP assay (agonist mode) and (ii) between 10% and 80% reduction in the E2-normalized signal in the AP assay (antagonist mode).

| SMILES | Activity (estrogen receptor modulation, agonism and antagonism) |
| --- | --- |
| C[C@@H]1Cc2c([nH]c3ccccc23)[C@@H](c2ccc(CC3CN(CCCF)C3)s2)N1CC(C)(C)F [Example I-2, 3-({5-[(1S,3R)-2-(2-fluoro-2-methylpropyl)-3-methyl-1H,2H,3H,4H,9H-pyrido[3,4-b]indol-1-yl]thiophen-2-yl}methyl)-1-(3-fluoropropyl)azetidine] | ++ (estrogen receptor antagonism having (i) between 10% and 80% increase in the E2-normalized signal in the AP assay (agonist mode) and (ii) between 10% and 80% reduction in the E2-normalized signal in the AP assay (antagonist mode)) |
| COCCCN1CC(Cc2ccc([C@@H]3c4[nH]c5ccccc5c4C[C@@H](C)N3CC(F)(F)CO)s2)C1 [Example I-53, 2,2-difluoro-3-[(1S,3R)-1-[5-[[1-(3-methoxypropyl)azetidin-3-yl]methyl]-2-thienyl]-3-methyl-1,3,4,9-tetrahydropyrido[3,4-b]indol-2-yl]propan-1-ol] | ++ (estrogen receptor antagonism having (i) between 10% and 80% increase in the E2-normalized signal in the AP assay (agonist mode) and (ii) between 10% and 80% reduction in the E2-normalized signal in the AP assay (antagonist mode)) |
| COCCCN1CC(Cc2ccc([C@@H]3c4[nH]c5ccccc5c4C[C@@H](C)N3CC(C)(C)F)s2)C1 [Example I-54, (1S,3R)-2-(2-fluoro-2-methyl-propyl)-1-[5-[[1-(3-methoxypropyl)azetidin-3-yl]methyl]-2-thienyl]-3-methyl-1,3,4,9-tetrahydropyrido[3,4-b]indole] | + (estrogen receptor agonism having (i) at least 80% increase in the E2-normalized signal in the AP assay (agonist mode) and (ii) no more than 80% reduction in the E2-normalized signal in the AP assay (antagonist mode)) |
| CCN1CCN(c2ccc([C@@H]3c4[nH]c5ccccc5c4C[C@@H](C)N3CC(C)(C)F)s2)CC1 [Example I-74, (1S,3R)-1-[5-(4-ethylpiperazin-1-yl)-2-thienyl]-2-(2-fluoro-2-methyl-propyl)-3-methyl-1,3,4,9-tetrahydropyrido[3,4-b]indole] | + (estrogen receptor agonism having (i) at least 80% increase in the E2-normalized signal in the AP assay (agonist mode) and (ii) no more than 80% reduction in the E2-normalized signal in the AP assay (antagonist mode)) |
| C#CCN1CC(Cc2ccc([C@@H]3c4[nH]c5ccccc5c4C[C@@H](C)N3CC(F)(F)CO)s2)C1 [Example I-60, 2,2-difluoro-3-[(1S,3R)-3-methyl-1-[5-[(1-prop-2-ynylazetidin-3-yl)methyl]-2-thienyl]-1,3,4,9-tetrahydropyrido[3,4-b]indol-2-yl]propan-1-ol] | ++ (estrogen receptor antagonism having (i) between 10% and 80% increase in the E2-normalized signal in the AP assay (agonist mode) and (ii) between 10% and 80% reduction in the E2-normalized signal in the AP assay (antagonist mode)) |
| C[C@@H]1Cc2c([nH]c3ccccc23)[C@@H](c2ncc(CC3CN(CCCF)C3)s2)N1CC(F)(F)F [Example I-34, 5-[[1-(3-fluoropropyl)azetidin-3-yl]methyl]-2-[(1S,3R)-3-methyl-2-(2,2,2-trifluoroethyl)-1,3,4,9-tetrahydropyrido[3,4-b]indol-1-yl]thiazole] | ++ (estrogen receptor antagonism having (i) between 10% and 80% increase in the E2-normalized signal in the AP assay (agonist mode) and (ii) between 10% and 80% reduction in the E2-normalized signal in the AP assay (antagonist mode)) |
| CCCN1CC[C@@H](Cc2ncc([C@@H]3c4[nH]c5ccccc5c4C[C@@H](C)N3CC(F)F)s2)C1 [Example I-45, 5-[(1S,3R)-2-(2,2-difluoroethyl)-3-methyl-1,3,4,9-tetrahydropyrido[3,4-b]indol-1-yl]-2-[[(3S)-1-propylpyrrolidin-3-yl]methyl]thiazole] | + (estrogen receptor agonism having (i) at least 80% increase in the E2-normalized signal in the AP assay (agonist mode) and (ii) no more than 80% reduction in the E2-normalized signal in the AP assay (antagonist mode)) |
| C[C@@H]1Cc2c([nH]c3ccccc23)[C@@H](c2cnc(C[C@@H]3CCN(CCCF)C3)s2)N1CC(F)(F)F [Example I-48, 2-[[(3S)-1-(3-fluoropropyl)pyrrolidin-3-yl]methyl]-5-[(1S,3R)-3-methyl-2-(2,2,2-trifluoroethyl)-1,3,4,9-tetrahydropyrido[3,4-b]indol-1-yl]thiazole] | ++ (estrogen receptor antagonism having (i) between 10% and 80% increase in the E2-normalized signal in the AP assay (agonist mode) and (ii) between 10% and 80% reduction in the E2-normalized signal in the AP assay (antagonist mode)) |
| CCCN1CC(Cc2ccc([C@@H]3c4[nH]c5ccccc5c4C[C@@H](C)N3CC(C)(C)F)s2)C1 [Example I-1, 3-({5-[(1S,3R)-2-(2-fluoro-2-methylpropyl)-3-methyl-1H,2H,3H,4H,9H-pyrido[3,4-b]indol-1-yl]thiophen-2-yl}methyl)-1-propylazetidine] | ++ (estrogen receptor antagonism having (i) between 10% and 80% increase in the E2-normalized signal in the AP assay (agonist mode) and (ii) between 10% and 80% reduction in the E2-normalized signal in the AP assay (antagonist mode)) |
| C[C@@H]1Cc2c([nH]c3ccccc23)[C@@H](c2sc(CC3CN(CCCF)C3)cc2F)N1CC(C)(C)F [Example I-12, 3-({4-fluoro-5-[(1S,3R)-2-(2-fluoro-2-methylpropyl)-3-methyl-1H,2H,3H,4H,9H-pyrido[3,4-b]indol-1-yl]thiophen-2-yl}methyl)-1-(3-fluoropropyl)azetidine] | ++ (estrogen receptor antagonism having (i) between 10% and 80% increase in the E2-normalized signal in the AP assay (agonist mode) and (ii) between 10% and 80% reduction in the E2-normalized signal in the AP assay (antagonist mode)) |
| CC1CN(CCCc2ccc([C@@H]3c4[nH]c5ccccc5c4C[C@@H](C)N3CC(C)(C)F)s2)C1 [Example I-19, 1-(3-{5-[(1S,3R)-2-(2-fluoro-2-methylpropyl)-3-methyl-1H,2H,3H,4H,9H-pyrido[3,4-b]indol-1-yl]thiophen-2-yl}propyl)-3-methylazetidine] | ++ (estrogen receptor antagonism having (i) between 10% and 80% increase in the E2-normalized signal in the AP assay (agonist mode) and (ii) between 10% and 80% reduction in the E2-normalized signal in the AP assay (antagonist mode)) |
| CCCN1CC(Sc2ccc([C@@H]3c4[nH]c5ccccc5c4C[C@@H](C)N3CC(C)(C)F)s2)C1 [Example I-62, 3-({5-[(1S,3R)-2-(2-fluoro-2-methylpropyl)-3-methyl-1H,2H,3H,4H,9H-pyrido[3,4-b]indol-1-yl]thiophen-2-yl}sulfanyl)-1-propylazetidine] | ++ (estrogen receptor antagonism having (i) between 10% and 80% increase in the E2-normalized signal in the AP assay (agonist mode) and (ii) between 10% and 80% reduction in the E2-normalized signal in the AP assay (antagonist mode)) |
| C[C@@H]1Cc2c([nH]c3ccccc23)[C@@H](c2cnc(CC3CN(CCCF)C3)s2)N1CC(F)(F)CO [Example I-40, 2,2-difluoro-3-[(1S,3R)-1-[2-[[1-(3-fluoropropyl)azetidin-3-yl]methyl]thiazol-5-yl]-3-methyl-1,3,4,9-tetrahydropyrido[3,4-b]indol-2-yl]propan-1-ol] | +++ (estrogen receptor antagonism (i) with pIC50 greater than 7.5 and at least a 10% reduction in the E2-normalized signal in the AP assay (antagonist mode); and no more than 10% increase in E2-normalized signal in the AP assay (agonist mode)) |
| C[C@@H]1Cc2c([nH]c3ccccc23)[C@@H](c2ccc(CC3CN(CCC(F)F)C3)s2)N1CC(C)(C)F [Example I-18, 1-(3,3-difluoropropyl)-3-({5-[(1S,3R)-2-(2-fluoro-2-methylpropyl)-3-methyl-1H,2H,3H,4H,9H-pyrido[3,4-b]indol-1-yl]thiophen-2-yl}methyl)azetidine] | ++ (estrogen receptor antagonism having (i) between 10% and 80% increase in the E2-normalized signal in the AP assay (agonist mode) and (ii) between 10% and 80% reduction in the E2-normalized signal in the AP assay (antagonist mode)) |
